Assay: Moisture sorption/desorption (hygroscopicity)
Type: physicochemical
Description: Moisture sorption/desorption data were collected on a VTI SGA-100 Vapor Sorption Analyzer. Sorption and desorption data were collected over a range of 5% to 95% relative humidity (“RH”) at 10% RH intervals under nitrogen purge. Samples were not dried prior to analysis. Equilibrium criteria used for analysis were less than 0.0100% weight change in 5 minutes, with a maximum equilibration time of 3 hours if the weight criterion was not met. Data were not corrected for the initial moisture content of the samples. NaCl and PVP were used as calibration standards. This example illustrates the differential scanning calorimetry (DSC) and hygroscopicity analysis of Form I prepared according to Example 6.

weight loss (moisture desorption, from 95% to 25% relative humidity): 0.6%
weight gain (moisture sorption, from 25% to 95% relative humidity): 0.6%
SMILES: O=S(=O)(Nc1cc(Cl)c(Oc2cnc3ccccc3c2)c(Cl)c1)c1ccc(Cl)cc1Cl.O=S(=O)(O)c1ccccc1 [Form I, 2,4-Dichloro-N-[3,5-dichloro-4-(quinolin-3-yloxy)-phenyl]-benzenesulfonamide benzenesulfonate salt]

Reference: patent US8003665B2, “Salts and polymorphs of a potent antidiabetic compound” (Amgen Inc., priority 2003, dated 2011)
